Laboratory results taken from ChEMBL document CHEMBL1201862, “PubChem BioAssay data set” (2004).
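All cell lines were grown in 96-well plates and treated with compound for 48 hours. Abbreviation: GI50, concentration required for 50% inhibition of growth.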 The source made the active and inactive calls. Cut-off read from the data, not from the text of the source: active = GI50 up to about 1.1 µM and inactive = higher.

Columns and labels:
Experiment in all cases: growth of human tumour cells (NCI), 48 h
[1] = tested on: IGROV-1
[2] = tested on: Hs-578T
[3] = tested on: SNB-75
[4] = tested on: SNB-19
[5] = tested on: A549
[6] = tested on: A498
[7] = tested on: RXF 393
[8] = tested on: SN12C
[9] = tested on: EKVX
[10] = tested on: PC-3
[11] = tested on: SK-MEL-5
[12] = tested on: HCT-15
[13] = tested on: HCC 2998
[14] = tested on: COLO 205
[15] = tested on: SF-539
[16] = tested on: NCI/ADR-RES
[17] = tested on: OVCAR-5
[18] = tested on: HL-60
[19] = tested on: MDA-N

SMILES	GI50 [1]	GI50 [2]	GI50 [3]	GI50 [4]	GI50 [5]	GI50 [6]	GI50 [7]	GI50 [8]	GI50 [9]	GI50 [10]	GI50 [11]	GI50 [12]	GI50 [13]	GI50 [14]	GI50 [15]	GI50 [16]	GI50 [17]	GI50 [18]	GI50 [19]
CCC1(c2ccc(N3C(=O)c4cccc5cc([N+](=O)[O-])cc(c45)C3=O)cc2)CCC(=O)NC1=O (configuration not stated)	5.4 µM (inactive)	16.1 µM (inactive)	7.05 µM (inactive)	35 µM (inactive)	55.5 µM (inactive)	10.1 µM (inactive)	7.14 µM (inactive)	6.05 µM (inactive)	11.7 µM (inactive)	20.9 µM (inactive)	90.4 µM (inactive)	31 µM	30.7 µM (inactive)	9.57 µM (inactive)	> 10 µM (inactive)	17 µM (inactive)	60.8 µM (inactive)	–	–
COc1ccc2nc3c(C(=O)NCCN(C)C)cccc3nc2c1	5.61 µM (inactive)	–	7.35 µM (inactive)	6.21 µM (inactive)	4.28 µM (inactive)	1.84 µM (inactive)	–	3.41 µM (inactive)	3.86 µM (inactive)	–	4.31 µM (inactive)	3.93 µM	6.76 µM (inactive)	4.28 µM (inactive)	2.51 µM (inactive)	–	11.2 µM (inactive)	4.23 µM (inactive)	–
O=C1c2cccc(O)c2C(=O)c2cccc(O)c21 [ANTHRARUFIN]	> 100 µM (inactive)	–	> 100 µM (inactive)	> 100 µM (inactive)	> 100 µM (inactive)	> 100 µM (inactive)	> 100 µM (inactive)	> 100 µM (inactive)	> 100 µM (inactive)	–	–	> 100 µM	> 100 µM (inactive)	> 100 µM (inactive)	> 100 µM (inactive)	–	> 100 µM (inactive)	–	–
O=C(Nc1ccccc1)c1cc2c(cc1Cl)SC(NNCCO)=NS2(=O)=O	> 100 µM (inactive)	> 100 µM (inactive)	99.5 µM (inactive)	> 100 µM (inactive)	–	> 100 µM (inactive)	> 100 µM (inactive)	–	> 100 µM (inactive)	> 100 µM (inactive)	> 100 µM (inactive)	> 100 µM	> 100 µM (inactive)	> 100 µM (inactive)	> 100 µM (inactive)	> 100 µM (inactive)	–	> 100 µM (inactive)	–
COc1ccc2c(c1)OCC1(O)Cc3ccccc3OC21 (configuration not stated)	> 100 µM (inactive)	–	> 100 µM (inactive)	–	> 100 µM (inactive)	> 100 µM (inactive)	–	> 100 µM (inactive)	> 100 µM (inactive)	> 100 µM (inactive)	> 100 µM (inactive)	> 100 µM	> 100 µM (inactive)	> 100 µM (inactive)	> 100 µM (inactive)	> 100 µM (inactive)	> 100 µM (inactive)	–	> 100 µM (inactive)
COC(=O)[C@](NC(=O)OCc1ccccc1)([C@@H](C)[S+]([O-])c1ccc(C)cc1)C(F)(F)F (some centres not stated)	24.6 µM (inactive)	58.9 µM (inactive)	36.4 µM (inactive)	43 µM (inactive)	29.9 µM (inactive)	31.4 µM (inactive)	20 µM (inactive)	–	29.2 µM (inactive)	27.9 µM (inactive)	16.4 µM (inactive)	34.7 µM	32.6 µM (inactive)	25.8 µM (inactive)	–	28.7 µM (inactive)	> 100 µM (inactive)	17 µM (inactive)	–
CCCCCCNC(=O)c1cnc(Cl)cn1	10.5 µM (inactive)	14.2 µM (inactive)	21 µM (inactive)	17.5 µM (inactive)	13.8 µM (inactive)	–	–	13.3 µM (inactive)	5.93 µM (inactive)	5.51 µM (inactive)	16.8 µM (inactive)	2.55 µM	–	18.4 µM (inactive)	17.6 µM (inactive)	15.6 µM (inactive)	17.3 µM (inactive)	23.8 µM (inactive)	–
CC(C)(NO)/C(=N\O)c1ccccc1	–	–	–	> 10 µM (inactive)	–	–	> 10 µM (inactive)	> 10 µM (inactive)	> 10 µM (inactive)	> 10 µM (inactive)	–	> 10 µM	> 10 µM (inactive)	> 10 µM (inactive)	–	> 10 µM (inactive)	> 10 µM (inactive)	> 10 µM (inactive)	> 10 µM (inactive)
